The target of one test is Mouse 11β-HSD 1 (Mus musculus, UniProt P50172). Nature of the test: Evaluation of compound against mouse 11β-HSD1 (HTRF corticosterone assay). The class given is biochemical. Particulars: mouse 11β-HSD1, 11-dehydrocorticosterone 2 μM substrate, 37° C. 2 hours. How it is done:
Evaluation Method of 11β-HSD1 Inhibitor (Evaluation of Compound Against Mouse 11β-HSD 1)
(§1) After preincubating an inhibitor in a reaction solution consisting of 50 mM sodium phosphate buffer (pH 7.6), bovine serum albumin (1 mg/mL), NADPH (0.42 mg/mL), glucose-6-phosphate (1.26 mg/mL), glucose-6-phosphate dehydrogenase, and an enzyme at room temperature for 30 minutes, 11-dehydrocorticosterone (2 μM) which is a substrate was added (total amount 10 μL). After reacting at 37° C. for 2 hours, an XL-665-labeled cortisol solution (5 μL), and a Cryptate-labeled anti-cortisol antibody solution (5 μL) were added, a reaction was performed at room temperature for 2 hours, and fluorescence intensity (HTRF method) was measured. A corticosterone concentration was calculated from a standard curve prepared using a known concentration of corticosterone for each assay.
Taking a concentration of corticosterone generated in the absence of the inhibitor as a control value, 50% inhibitory concentration (IC50 value) of the inhibitor against 11β-HSD1 was calculated from an inhibition curve plotting inhibition rate against the control value at each concentration of the inhibitor.

In another test the target is Human 11β-HSD1 (Homo sapiens, UniProt P28845). Nature of the test: Evaluation of compound against human 11β-HSD1 (HTRF cortisol assay). It is filed as biochemical. The conditions noted are these: human 11β-HSD1, cortisone 5 μM substrate, 37° C. 2 hours. The protocol:
Evaluation Method of 11β-HSD1 Inhibitor (Evaluation of Compound Against Human 11β-HSD1)
as §1, with “dehydrogenase” for “dehydrogenase,”, “cortisone (5” for “11-dehydrocorticosterone (2”, “cortisol” for “corticosterone”
Taking a concentration of cortisol generated in the absence of the inhibitor as a control value, 50% inhibitory concentration (IC50 value) of the inhibitor against 11β-HSD1 was calculated from an inhibition curve plotting inhibition rate against the control value at each concentration of an inhibitor.
A general note: In TR-FRET formats the signal depends on donor and acceptor labels being close together.

SMILES strings stand for the structures.

One may read the IC50 as the concentration needed to halve the response being measured. The low end stands for greater potency, the high end for weaker potency.

Mouse 11β-HSD 1, sequence (P50172 whole entry): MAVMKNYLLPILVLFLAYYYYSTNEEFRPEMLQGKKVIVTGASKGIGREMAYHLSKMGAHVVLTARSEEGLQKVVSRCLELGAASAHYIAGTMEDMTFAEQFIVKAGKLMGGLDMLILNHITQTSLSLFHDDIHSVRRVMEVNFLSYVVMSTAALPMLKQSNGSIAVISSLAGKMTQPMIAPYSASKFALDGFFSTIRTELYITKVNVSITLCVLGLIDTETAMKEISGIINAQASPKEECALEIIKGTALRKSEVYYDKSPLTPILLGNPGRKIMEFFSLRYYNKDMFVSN
Human 11β-HSD1, sequence (P28845 whole entry): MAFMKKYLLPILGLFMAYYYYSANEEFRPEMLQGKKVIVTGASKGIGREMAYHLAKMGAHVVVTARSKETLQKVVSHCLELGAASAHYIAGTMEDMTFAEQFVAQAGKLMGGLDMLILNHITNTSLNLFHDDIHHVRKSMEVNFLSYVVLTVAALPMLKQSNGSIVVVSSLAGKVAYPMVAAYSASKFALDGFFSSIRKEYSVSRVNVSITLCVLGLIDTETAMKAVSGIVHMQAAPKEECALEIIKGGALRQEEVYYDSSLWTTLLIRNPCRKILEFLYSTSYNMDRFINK

Regarding `CN(C1=NC(=O)C2CCCCCC2S1)C(C)(C)C` (stereo not drawn) [Compound I-158], the half-maximal inhibitory concentration (IC50) at Mouse 11β-HSD 1 came out at 1.49 µM; against Human 11β-HSD1 it was 0.19 µM.
For `CCN(C1=NC(=O)C2CC(C)(C)CCC2S1)c1ccccc1C(C)(C)C` (stereo not drawn) [Compound I-175] the same measures were 0.82 µM and 0.032 µM.
For the molecule `CCN(C1=NC(=O)C2CC(C)(C)CCC2S1)N1CCCCCC1` (stereo not drawn) [Compound I-195], the IC50 turned out to be 1.64 µM against Mouse 11β-HSD 1 and 0.011 µM at Human 11β-HSD1.

Values taken from patent US20100234363A1, “HETEROCYCLIC DERIVATIVE HAVING INHIBITORY ACTIVITY ON TYPE-I 11 DATA-HYDROXYSTEROID DEHYDROGENASE” (INSTITUTE OF MEDICINAL MOLECULAR DESIGN, INC., priority 2007, published 2010).
